A word on the IC50: it is the point on the concentration scale where inhibition reaches its midpoint.

This note sets out measurements from BindingDB's records for doi:10.1111/cbdd.12189 (Tianjin Medical University, 2013).

In assay [1] the target is T1, Tyrosine-protein phosphatase non-receptor type 1 (Homo sapiens, UniProt P18031).
T1 sequence (P18031 whole entry): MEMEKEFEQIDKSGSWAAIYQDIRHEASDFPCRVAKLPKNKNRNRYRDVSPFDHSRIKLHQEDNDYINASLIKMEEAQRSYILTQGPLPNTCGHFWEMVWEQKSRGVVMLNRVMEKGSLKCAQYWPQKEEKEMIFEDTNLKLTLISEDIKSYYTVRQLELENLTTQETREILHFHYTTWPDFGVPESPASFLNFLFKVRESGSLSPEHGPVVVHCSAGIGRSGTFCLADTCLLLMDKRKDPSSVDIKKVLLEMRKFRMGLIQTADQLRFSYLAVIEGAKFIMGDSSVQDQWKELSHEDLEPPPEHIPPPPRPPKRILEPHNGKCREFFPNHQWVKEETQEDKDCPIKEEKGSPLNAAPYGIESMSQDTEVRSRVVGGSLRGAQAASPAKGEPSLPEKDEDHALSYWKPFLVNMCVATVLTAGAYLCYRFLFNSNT
Nature of the assay: PTP activity assay. The note with it: pH 6; 37 °C. The protocol: (§1) The enzyme activity was measured using p-nitrophenyl phosphate (pNPP) as substrate in a 96-well plate and by detecting the absorbance at 405 nm for the amount of produced p-nitrophenol. Purified human recombinant PTP1B or TCPTP (0.05 µg) in 50 µL buffer containing 50 mM citrate (pH 6.0), 0.1 M NaCl, 1 mM EDTA, and 1 mM DTT and test compounds were added to each well. Each mixture was pre-incubated for 15 min at room temperature, followed by the addition of 50 µL of reaction buffer containing 2 mM pNPP and incubated at 37°C for 30 min.

Assay [2] has as its target T2, Tyrosine-protein phosphatase non-receptor type 2 (Homo sapiens, UniProt P17706).
T2 sequence (P17706 whole entry): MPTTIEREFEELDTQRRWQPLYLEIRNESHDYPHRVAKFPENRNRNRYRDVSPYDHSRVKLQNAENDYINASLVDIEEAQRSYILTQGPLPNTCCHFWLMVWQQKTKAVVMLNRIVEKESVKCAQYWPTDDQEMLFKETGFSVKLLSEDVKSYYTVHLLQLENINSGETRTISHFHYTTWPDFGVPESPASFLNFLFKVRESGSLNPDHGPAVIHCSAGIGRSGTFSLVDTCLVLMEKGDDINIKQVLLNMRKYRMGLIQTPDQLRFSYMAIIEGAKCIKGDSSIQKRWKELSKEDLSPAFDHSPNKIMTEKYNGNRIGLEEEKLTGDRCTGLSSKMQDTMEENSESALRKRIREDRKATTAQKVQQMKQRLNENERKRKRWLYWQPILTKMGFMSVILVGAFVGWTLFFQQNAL
Nature of the assay: PTP activity assay. The note with it: pH 6; 37 °C. On the procedure: as §1

For `O=C1NC(=O)/C(=C/c2cccc(OCc3ccc(Cl)cc3Cl)c2)N1` [(5Z)‐5‐({3‐[(2,4‐ dichlorophenyl)methoxy]phenyl}methylidene)imidazolidine‐ 2,4‐dione (comp#h)], the IC50 in assay [1] was 4.1 µM; in assay [2] it was above 138 µM.
For the compound `O=C1NC(=O)/C(=C/c2cccc(OCc3ccc(Cl)c(Cl)c3)c2)N1` [(5Z)‐5‐({3‐[(3,4‐ dichlorophenyl)methoxy]phenyl}methylidene)imidazolidine‐ 2,4‐dione (comp#i)], the values for the IC50 in assay [1] and in assay [2] were 2.8 µM and 33.6 µM, respectively.
On to `O=C1NC(=O)/C(=C/c2ccc(OCc3ccc(Cl)c(Cl)c3)cc2)N1` [(5Z)‐5‐({4‐[(3,4‐ dichlorophenyl)methoxy]phenyl}methylidene)imidazolidine‐ 2,4‐dione (comp#k)], for which, in assay [2], the 50% inhibitory concentration (IC50) was 33.9 µM.
Consider `O=C1NC(=O)/C(=C/c2cccc(OCCc3ccccc3)c2)N1` [(5Z)‐5‐{[3‐(2‐ phenylethoxy)phenyl]methylidene}imidazolidine‐2,4‐ dione (comp#e)], for which the IC50 in assay [1] was determined as 11.4 µM; in assay [2], 44.1 µM.
The corresponding values for `O=C1NC(=O)/C(=C/c2ccccc2OCc2cccc(Cl)c2)N1` [(5Z)‐5‐({2‐[(3‐ chlorophenyl)methoxy]phenyl}methylidene)imidazolidine‐ 2,4‐dione (comp#a)] are 37.4 µM and 36.8 µM.
The corresponding values for `O=C1NC(=O)/C(=C/c2cccc(OCc3ccccc3)c2)N1` [(5Z)‐5‐{[3‐ (benzyloxy)phenyl]methylidene}imidazolidine‐2,4‐ dione (comp#d)] are above 170 µM and above 170 µM.
On to `O=C1NC(=O)/C(=C/c2cccc(OCCCc3ccccc3)c2)N1` [(5Z)‐5‐{[3‐(3‐ phenylpropoxy)phenyl]methylidene}imidazolidine‐2,4‐ dione (comp#f)], for which the IC50 in assay [1] came out at 41.9 µM; in assay [2] it was 22.3 µM.
For the compound `O=C1NC(=O)/C(=C/c2ccc(OCc3ccc(Cl)cc3Cl)cc2)N1` [(5Z)‐5‐({4‐[(2,4‐ dichlorophenyl)methoxy]phenyl}methylidene)imidazolidine‐ 2,4‐dione (comp#j)], the IC50 in assay [2] worked out at 11.6 µM. This counts as double-digit micromolar.
For `COc1ccc(COc2ccc(/C=C3\NC(=O)NC3=O)cc2)cc1` [(5Z)‐5‐({4‐[(4‐ methoxyphenyl)methoxy]phenyl}methylidene)imidazolidine‐ 2,4‐dione (comp#l)], the values for the IC50 in assay [1] and in assay [2] were 3.4 µM and 31.4 µM, respectively.
On to `O=C1NC(=O)/C(=C/c2ccccc2OCc2ccc(Cl)cc2)N1` [(5Z)‐5‐({2‐[(4‐ chlorophenyl)methoxy]phenyl}methylidene)imidazolidine‐ 2,4‐dione (comp#b)], for which the concentration for half-maximal inhibition (IC50) in assay [1] is 4.6 µM; in assay [2] it was 35.9 µM.
`O=C1NC(=O)/C(=C/c2ccccc2OCc2ccc(Cl)cc2Cl)N1` [(5Z)‐5‐({2‐[(2,4‐ dichlorophenyl)methoxy]phenyl}methylidene)imidazolidine‐ 2,4‐dione (comp#c)]: the IC50 was determined as 4.1 µM in assay [1] and 18.7 µM in assay [2].
For `O=C1NC(=O)/C(=C/c2cccc(OCc3ccc(Cl)cc3)c2)N1` [(5Z)‐5‐({3‐[(4‐ chlorophenyl)methoxy]phenyl}methylidene)imidazolidine‐ 2,4‐dione (comp#g)], the concentration for half-maximal inhibition (IC50) in assay [1] came out at 40.8 µM; in assay [2], 137 µM.
